These are literature values, as cited in PMC9851200, “Multiparameter phenotypic screening for endogenous TFEB and TFE3 translocation identifies novel chemical series modulating lysosome function” (Autophagy, 2022).

Common to all, as to set-up: method as in original PKIS2 published data
The target in data set [1] is T1, kinases (KINOMEscan panel) (Homo sapiens, UniProt P29323).
T1 sequence (P29323 19-1055): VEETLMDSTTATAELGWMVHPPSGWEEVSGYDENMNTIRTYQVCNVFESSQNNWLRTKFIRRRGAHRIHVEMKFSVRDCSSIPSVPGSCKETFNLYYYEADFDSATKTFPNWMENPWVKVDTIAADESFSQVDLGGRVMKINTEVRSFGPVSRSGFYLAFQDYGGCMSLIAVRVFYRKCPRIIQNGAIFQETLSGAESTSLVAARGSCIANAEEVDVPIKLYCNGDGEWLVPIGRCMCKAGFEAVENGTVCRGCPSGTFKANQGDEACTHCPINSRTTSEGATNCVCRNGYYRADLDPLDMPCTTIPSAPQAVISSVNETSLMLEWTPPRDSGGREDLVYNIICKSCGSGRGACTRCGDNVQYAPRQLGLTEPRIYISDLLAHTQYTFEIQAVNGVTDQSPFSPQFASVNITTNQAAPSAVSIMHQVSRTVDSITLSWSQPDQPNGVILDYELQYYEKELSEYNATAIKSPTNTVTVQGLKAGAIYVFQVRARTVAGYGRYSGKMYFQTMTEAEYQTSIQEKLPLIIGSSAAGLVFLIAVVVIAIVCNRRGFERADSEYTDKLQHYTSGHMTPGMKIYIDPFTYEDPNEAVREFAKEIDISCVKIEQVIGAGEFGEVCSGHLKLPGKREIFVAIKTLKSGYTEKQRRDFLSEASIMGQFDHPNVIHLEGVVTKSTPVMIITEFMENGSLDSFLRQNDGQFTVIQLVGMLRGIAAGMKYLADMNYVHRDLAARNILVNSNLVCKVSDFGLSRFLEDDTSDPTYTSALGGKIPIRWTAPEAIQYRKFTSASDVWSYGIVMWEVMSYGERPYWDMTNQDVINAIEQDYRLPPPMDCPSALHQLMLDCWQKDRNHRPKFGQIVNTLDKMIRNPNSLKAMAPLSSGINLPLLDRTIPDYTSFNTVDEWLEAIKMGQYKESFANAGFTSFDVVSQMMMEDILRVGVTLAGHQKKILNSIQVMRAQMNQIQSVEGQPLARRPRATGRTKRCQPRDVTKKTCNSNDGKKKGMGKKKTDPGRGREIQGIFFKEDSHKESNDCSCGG
As to conditions: EPHB2; Published KINOMEscan; ref original PKIS2 published data; cited from earlier work.

In data set [2] the target is T2, kinases (KINOMEscan panel) (Homo sapiens, UniProt Q9UHD2).
T2 sequence (Q9UHD2 1-729): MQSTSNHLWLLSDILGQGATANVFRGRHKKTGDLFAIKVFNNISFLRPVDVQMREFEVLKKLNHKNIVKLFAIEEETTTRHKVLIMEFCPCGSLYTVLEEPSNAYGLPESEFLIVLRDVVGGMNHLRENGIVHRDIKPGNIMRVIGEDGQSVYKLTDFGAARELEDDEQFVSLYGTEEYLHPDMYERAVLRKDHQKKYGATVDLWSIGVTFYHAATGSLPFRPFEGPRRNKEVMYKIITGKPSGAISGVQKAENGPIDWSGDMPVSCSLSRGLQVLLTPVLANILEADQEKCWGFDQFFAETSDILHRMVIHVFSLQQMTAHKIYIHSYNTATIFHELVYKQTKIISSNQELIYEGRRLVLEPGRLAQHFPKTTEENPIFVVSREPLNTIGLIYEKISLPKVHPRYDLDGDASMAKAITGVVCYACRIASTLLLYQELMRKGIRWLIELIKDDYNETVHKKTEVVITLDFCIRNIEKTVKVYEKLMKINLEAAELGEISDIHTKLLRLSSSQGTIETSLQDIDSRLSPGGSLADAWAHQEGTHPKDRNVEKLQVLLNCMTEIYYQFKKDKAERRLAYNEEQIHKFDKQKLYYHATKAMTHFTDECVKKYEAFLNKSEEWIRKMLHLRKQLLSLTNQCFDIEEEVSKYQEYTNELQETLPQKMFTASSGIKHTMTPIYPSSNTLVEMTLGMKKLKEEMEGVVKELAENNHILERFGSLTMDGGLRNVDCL
The conditions noted are these: TBK1; Published KINOMEscan; ref original PKIS2 published data; cited from earlier work.

In data set [3] the target is kinases (KINOMEscan panel) (Homo sapiens, UniProt P35916). The conditions noted are these: FLT4; Published KINOMEscan; ref original PKIS2 published data; cited from earlier work.
Chain of kinases (KINOMEscan panel) (Homo sapiens, UniProt P35916) (P35916 25-1363): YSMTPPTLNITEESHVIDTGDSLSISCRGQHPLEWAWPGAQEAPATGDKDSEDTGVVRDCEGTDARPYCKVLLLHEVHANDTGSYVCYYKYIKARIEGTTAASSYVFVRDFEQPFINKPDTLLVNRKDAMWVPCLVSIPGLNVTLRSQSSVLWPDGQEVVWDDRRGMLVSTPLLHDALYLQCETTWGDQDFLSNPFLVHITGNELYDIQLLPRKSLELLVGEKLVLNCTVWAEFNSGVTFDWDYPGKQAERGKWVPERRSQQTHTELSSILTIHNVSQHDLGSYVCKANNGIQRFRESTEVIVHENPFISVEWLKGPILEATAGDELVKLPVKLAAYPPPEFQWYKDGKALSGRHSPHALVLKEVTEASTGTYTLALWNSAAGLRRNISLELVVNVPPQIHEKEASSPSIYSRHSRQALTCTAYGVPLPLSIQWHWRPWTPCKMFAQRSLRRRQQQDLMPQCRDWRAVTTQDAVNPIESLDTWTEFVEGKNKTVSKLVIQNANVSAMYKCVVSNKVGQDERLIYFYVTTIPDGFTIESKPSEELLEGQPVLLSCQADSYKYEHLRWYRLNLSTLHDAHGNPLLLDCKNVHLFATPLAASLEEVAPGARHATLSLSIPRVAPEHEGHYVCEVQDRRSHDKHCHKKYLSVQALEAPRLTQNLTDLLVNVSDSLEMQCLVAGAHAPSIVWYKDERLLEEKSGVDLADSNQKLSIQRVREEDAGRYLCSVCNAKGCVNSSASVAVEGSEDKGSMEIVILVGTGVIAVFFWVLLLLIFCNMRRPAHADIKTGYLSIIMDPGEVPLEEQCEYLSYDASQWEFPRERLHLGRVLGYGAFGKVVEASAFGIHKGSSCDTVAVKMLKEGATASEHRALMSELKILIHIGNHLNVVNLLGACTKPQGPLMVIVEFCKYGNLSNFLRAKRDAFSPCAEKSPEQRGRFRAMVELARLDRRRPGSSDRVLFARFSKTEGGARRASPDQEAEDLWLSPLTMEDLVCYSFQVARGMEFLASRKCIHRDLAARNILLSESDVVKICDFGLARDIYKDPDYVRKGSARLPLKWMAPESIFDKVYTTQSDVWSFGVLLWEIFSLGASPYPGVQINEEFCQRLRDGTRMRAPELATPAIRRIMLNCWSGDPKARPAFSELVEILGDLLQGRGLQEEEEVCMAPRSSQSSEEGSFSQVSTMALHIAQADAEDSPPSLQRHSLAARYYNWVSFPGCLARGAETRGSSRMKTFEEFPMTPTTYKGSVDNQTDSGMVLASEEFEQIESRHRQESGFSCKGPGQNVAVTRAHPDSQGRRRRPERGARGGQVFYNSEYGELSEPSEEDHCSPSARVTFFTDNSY
For data set [4], the target named is T3, kinases (KINOMEscan panel) (Homo sapiens, UniProt O75385).
T3 sequence (O75385 1-1050): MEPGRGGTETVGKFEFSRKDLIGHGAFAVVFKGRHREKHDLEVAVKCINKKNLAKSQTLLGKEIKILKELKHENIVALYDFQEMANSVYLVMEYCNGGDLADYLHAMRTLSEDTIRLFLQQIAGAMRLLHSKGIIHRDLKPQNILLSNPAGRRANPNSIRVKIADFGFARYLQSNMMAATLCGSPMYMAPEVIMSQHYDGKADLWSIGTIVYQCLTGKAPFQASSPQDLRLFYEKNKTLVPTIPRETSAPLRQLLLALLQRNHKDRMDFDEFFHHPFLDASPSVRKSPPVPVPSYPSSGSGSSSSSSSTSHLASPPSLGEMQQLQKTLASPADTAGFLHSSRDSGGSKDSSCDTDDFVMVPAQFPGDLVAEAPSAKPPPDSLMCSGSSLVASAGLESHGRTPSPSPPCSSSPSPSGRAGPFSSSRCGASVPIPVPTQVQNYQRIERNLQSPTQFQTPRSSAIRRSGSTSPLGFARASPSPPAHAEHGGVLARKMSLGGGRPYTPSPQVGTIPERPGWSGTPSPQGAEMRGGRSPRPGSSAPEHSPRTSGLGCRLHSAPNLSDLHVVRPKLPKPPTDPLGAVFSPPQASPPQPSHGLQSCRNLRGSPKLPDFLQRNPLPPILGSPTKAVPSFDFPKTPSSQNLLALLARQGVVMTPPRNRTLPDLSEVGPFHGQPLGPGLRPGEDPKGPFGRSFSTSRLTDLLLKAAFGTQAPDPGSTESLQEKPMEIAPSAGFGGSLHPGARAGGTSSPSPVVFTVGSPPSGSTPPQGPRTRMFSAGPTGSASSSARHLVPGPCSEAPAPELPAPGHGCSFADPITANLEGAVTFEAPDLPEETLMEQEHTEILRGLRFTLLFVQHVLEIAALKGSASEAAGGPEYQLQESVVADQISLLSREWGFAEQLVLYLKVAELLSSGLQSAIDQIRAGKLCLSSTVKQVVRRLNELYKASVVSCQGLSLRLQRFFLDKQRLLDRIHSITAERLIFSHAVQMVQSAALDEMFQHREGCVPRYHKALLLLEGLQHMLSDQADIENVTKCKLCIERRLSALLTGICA
As to conditions: Published KINOMEscan; ref original PKIS2 published data; cited from earlier work.

Regarding `Cc1cccc(-c2nc(Nc3ccncc3)c3ccccc3n2)n1` [NK215], the “KINOMEscan EPHB2” value in data set [1] was 16. The “KINOMEscan TBK1” value in data set [2] was 41. For the same molecule, the “KINOMEscan FLT4” value in data set [3] is 1. In data set [4], the “KINOMEscan ULK1” value is recorded as 0.
